Values joined by “and” are separate entries in the source; they are usually repeats but may differ in a detail not shown here. Equal entries are not always repeated. Active and inactive are the calls of the source.
Experiments:
Albumin = Albumin (Bos taurus, UniProt P02769); assay: Counterscreen for inhibitors of T-cell receptor (TCR)-CD3 interaction: Fluorescence-based biochemical high throughput dose response assay to identify inhibitors of T-cell receptor (TCR)-CD3 interaction using a TAMRA-labeled BSA probe.; type: functional
[1] = HEK293T viability loss – cell-based, ATP luminescence, dry powder, Set6, cytotoxicity control, dose response (AID 743142); type: functional; conditions: HEK293
[2] = viability loss in HEK293 kidney cells – cell-based, cherry-picks, set 5, cytotoxicity control, dose response (AID 1053117); type: functional
[3] = viability loss in A549 lung cancer cells – cell-based, cherry-picks, […], cytotoxicity control, dose response (AID 1053119); type: functional
[4] = inhibitors of EBV LMP1 NF-kappaB signaling – cell-based, luciferase reporter, luminescence, dry powder, set 2, dose response (AID 624376); type: functional
[5] = toxicity toward immortalized ovarian surface epithelium – cell-based, plate reader, dry powder samples, cytotoxicity control for PAX8 inhibitor project, dose response (AID 743045); type: functional
[6] = PAX8-dependent cell viability loss – plate reader, dry powder, dose response (AID 743049); type: functional, cell-based
[7] = OV-90 cell viability loss – plate reader, dry powder, SA8, PAX8 inhibitor project, dose response (AID 743149); type: functional, cell-based
Paired box protein Pax-8 = Paired box protein Pax-8 (Homo sapiens, UniProt Q06710); assay: PAX8 transcriptional activity inhibition in RMG-I – RMG-I cells, luciferase, cherry-pick, dose response (AID 687027); type: functional, cell-based;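 note: luciferase reporter driven by Pax8 target thyroperoxidase promoter measured by SteadyGlo luminescence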
[8] = COV434 cell viability loss – plate reader, dry powder, SA7, cytotoxicity control for PAX8 inhibitor project, dose response (AID 743145); type: functional, cell-based
[9] = target: NAD-dependent protein deacylase sirtuin-5, mitochondrial (Homo sapiens, UniProt Q9NXA8); assay: sirtuin-5 deacylation blockers, concentration series – biochemical, fluorescence imaging, cherry-pick, set 5, dose response (AID 720591);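 note: desuccinylation of succinyl peptide AMC substrate read as fluorescence after trypsin release; potency of inhibitors that lower fluorescence and may act on trypsin instead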
[10] = reduced cellular PGC1a acetyl-lysine signal – cell-based, cherry-picked samples, dose response (AID 720514); type: functional;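 note: potency may reflect raised or lowered acetylation signal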
[11] = IGROV1 cell killing – plate reader, dry powder samples, PAX8 inhibitor project, dose response (AID 743043); type: functional, cell-based; conditions: IGROV-1
[12] = target: 1-phosphatidylinositol 4,5-bisphosphate phosphodiesterase beta-3 (Homo sapiens, UniProt Q01970); assay: Fluorescence-based biochemical high throughput dose response assay to identify inhibitors of phospholipase C isozymes (PLC-B3).
[13] = target: 1-phosphatidylinositol 4,5-bisphosphate phosphodiesterase gamma-1 (Homo sapiens, UniProt P19174); assay: Counterscreen for inhibitors of phospholipase C isozymes (PLC-B3): Fluorescence-based biochemical high throughput dose response assay to identify inhibitors of phospholipase C isozymes (PLC-gamma1).
Vero = assay: cells; type: functional; conditions: Chlorocebus sabaeus
[14] = target: Heat shock protein HSP 90-alpha (Homo sapiens, UniProt P07900); assay: Luminescence-based dose response biochemical high throughput screening assay for inhibitors of the Heat Shock Protein 90 (HSP90). [Related pubchem assays: 1831 (Summary AID.), 1846 (Confirmation screen.), 1789 (Primary screen.)]
[15] = Late stage assay provider results from the probe development effort to identify selective inhibitors of heat shock protein 90 (HSP90): Absorbance-based cell proliferation assay in MCF7 cells.; type: functional
[16] = Late stage assay provider results from the probe development effort to identify selective inhibitors of heat shock protein 90 (HSP90): Absorbance-based cell proliferation assay in SKBR3 cells.; type: functional; conditions: SK-BR-3
[17] = optical artefact potency, substrate without enzyme – biochemical, fluorescence intensity, triplicate, artefact control for kallikrein-7 zymogen activator project, dose response (AID 720493)
Kallikrein-7 = Kallikrein-7 (Homo sapiens, UniProt P49862); assay: Fluorescence Intensity-based biochemical primary high throughput dose response assay to identify activators of kallikrein-7 (K7) zymogen.
[18] = OVCAR-3 cell viability loss – plate reader, dry powder samples, PAX8 inhibitor project, dose response (AID 743044); type: functional, cell-based
[19] = OVCAR8 cell viability loss – plate reader, dry powder samples, PAX8 project, dose response (AID 743197); type: functional, cell-based; conditions: OVCAR-8
[20] = CMV-driven luciferase expression suppression in HEK293 – cell-based, luminescence, dry powder, counter-screen for Pax8 inhibitor project, dose response (AID 743020); type: functional
[21] = target: COUP transcription factor 2 (Homo sapiens, UniProt P24468); assay: Luminescence-based cell-based high throughput dose response assay to identify inhibitors of COUP-TFII (NR2F2).; type: functional;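 note: HEK293 cells transiently cotransfected with COUP-TFII expression vector and reporter; luciferase reporter luminescence driven by COUP-TFII from the pX2-168 reporter plasmid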
[22] = T. cruzi growth inhibition in host cells, dose response, cell-based, plate reader, dry powder, set 2 (AID 652275); type: functional
[23] = mouse embryonic fibroblast toxicity – cell-based, plate reader, dry powder, set 2, cytotoxicity control, dose response (AID 652280); type: functional; conditions: NIH3T3
H4 = assay: Luminescence Cell-Based Dose Response HTS to Identify Activators of 5'UTR Stem-Loop Driven Prion Protein mRNA Translation in H4 Neuroglioblastoma Cells. [Related pubchem assays: 1829 (Project Summary), 1814 (Primary HTS)]; type: functional; conditions: Homo sapiens
[24] = Luminescence Cell-Based Dose Response HTS to Identify Activators of Luciferase Translation or Activity in H4 […] Cells. [Related pubchem assays: 1829 (Project Summary), 1814 (Primary HTS)]; type: functional
[25] = Luminescence Cell-Based Dose Retest to Confirm Activators of 5'UTR Stem-Loop Driven Alpha-Synuclein mRNA Translation in H4 Neuroglioblastoma Cells. [Related pubchem assays (depositor defined):AID1813, AID1829]; type: functional
[26] = Luminescence Cell-Based Dose Response HTS to Identify Activators of Luciferase Translation or Activity in H4-C Neuroglioblastoma Cells. [Related pubchem assays: 1829 (Project Summary), 1814 (Primary HTS)]; type: functional
[27] = viability loss in HepG2 hepatoma cells – cell-based, cherry-picks, set 5, cytotoxicity control, dose response (AID 1053118); type: functional
[28] = Luminescence Cell-Based Dose Response HTS to Identify Activators of 5'UTR Stem-Loop Driven Prion Protein mRNA Translation in H4-C Neuroglioblastoma Cells. [Related pubchem assays: 1829 (Project Summary), 1814 (Primary HTS)]; type: functional
[29] = Luminescence Cell-Based Dose Confirmation HTS to Identify Activators of 5'UTR Stem-Loop Driven Alpha-Synuclein mRNA Translation in H4 Neuroglioblastoma Cells. [Related pubchem assays: 1829 (Project Summary), 1814 (Primary HTS)]; type: functional
cells [30] = type: functional, cell-based; conditions: HEK-CNG
HEK293 [31] = assay: cells; conditions: Homo sapiens
HEK293 [32] = assay: cells; conditions: Homo sapiens; remark: listed apart in the source
Galanin receptor type 3 = Galanin receptor type 3 (Homo sapiens, UniProt O60755); assay: Fluorescence-based cell-based primary high throughput dose response assay to identify antagonists of the Galanin Receptor 3 (GalR3).; type: functional
[33] = target: Scavenger receptor class B member 1 (Mus musculus, UniProt Q61009); assay: blockers of DiI-HDL lipid transfer via SR-BI – cell-based, ldlA[mSR-BI] CHO, DiI fluorescence, dry powder, set 10, dose response (AID 624029); type: functional
HeLa = assay: viability loss in HeLa cells – cell-based, ATP luminescence, cherry-pick samples, cytotoxicity control, dose response (AID 687004); type: functional; conditions: Homo sapiens
[34] = PAX5 cellular inhibition readout – cell-based, plate reader, dry powder samples, selectivity assay for PAX8 inhibitor project, dose response (AID 743047); type: functional;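 note: HEK293 cells carrying a Pax5 driven CD19 promoter luciferase reporter; potency of inhibitors that lower reporter luminescence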
cells [35] = conditions: HEK293
[36] = liver cell line viability loss – HepG2, luminescence plate reader, powder samples, set 2, cytotoxicity control, dose response (AID 651860); type: functional, cell-based
[37] = HEK293 Cytotoxicity Assay Measured in Cell-Based System Using Plate Reader - 7071-01_Inhibitor_Dose_CherryPick_Activity_Set2.; type: functional
HEK293 [38] = assay: viability loss in HEK293T cells – cell-based, ATP luminescence, cherry-pick samples, cytotoxicity control, dose response (AID 687005); type: functional; conditions: Homo sapiens;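 note: cells exposed to compound for 48 hours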
[39] = YAP1 overexpression rescue of CTGF inhibition – DLD1 cells, RT-qPCR, cherry-pick, mechanism study for YAP1 pathway inhibitor project, dose response (AID 1053127); type: functional, cell-based; conditions: DLD-1

Chain of Paired box protein Pax-8 (Q06710 whole entry): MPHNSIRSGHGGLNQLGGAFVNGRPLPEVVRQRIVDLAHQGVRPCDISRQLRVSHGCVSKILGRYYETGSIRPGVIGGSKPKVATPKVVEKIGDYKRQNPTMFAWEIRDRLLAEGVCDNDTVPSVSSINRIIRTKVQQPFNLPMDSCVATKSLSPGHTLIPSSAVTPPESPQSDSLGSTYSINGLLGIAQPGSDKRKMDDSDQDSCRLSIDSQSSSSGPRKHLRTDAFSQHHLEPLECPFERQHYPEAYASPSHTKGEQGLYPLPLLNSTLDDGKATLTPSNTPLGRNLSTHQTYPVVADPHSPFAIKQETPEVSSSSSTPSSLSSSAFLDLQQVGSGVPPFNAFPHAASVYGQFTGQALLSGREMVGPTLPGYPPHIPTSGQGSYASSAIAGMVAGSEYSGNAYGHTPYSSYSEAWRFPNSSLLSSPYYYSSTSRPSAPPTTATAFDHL
Chain of Scavenger receptor class B member 1 (Q61009 whole entry): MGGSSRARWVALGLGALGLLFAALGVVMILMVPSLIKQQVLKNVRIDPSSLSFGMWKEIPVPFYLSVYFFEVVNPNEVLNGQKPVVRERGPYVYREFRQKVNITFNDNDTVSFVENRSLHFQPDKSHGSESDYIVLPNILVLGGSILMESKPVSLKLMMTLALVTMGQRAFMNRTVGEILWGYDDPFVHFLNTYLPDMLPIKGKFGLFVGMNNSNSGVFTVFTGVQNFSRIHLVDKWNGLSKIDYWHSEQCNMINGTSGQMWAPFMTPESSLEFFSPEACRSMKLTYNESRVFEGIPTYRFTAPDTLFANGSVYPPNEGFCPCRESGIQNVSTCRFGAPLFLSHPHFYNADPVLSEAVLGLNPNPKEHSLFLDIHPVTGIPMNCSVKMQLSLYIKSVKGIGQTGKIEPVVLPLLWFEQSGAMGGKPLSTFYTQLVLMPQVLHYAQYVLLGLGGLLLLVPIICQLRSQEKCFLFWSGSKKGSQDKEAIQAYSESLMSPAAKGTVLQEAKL
Chain of NAD-dependent protein deacylase sirtuin-5, mitochondrial (Q9NXA8 whole entry): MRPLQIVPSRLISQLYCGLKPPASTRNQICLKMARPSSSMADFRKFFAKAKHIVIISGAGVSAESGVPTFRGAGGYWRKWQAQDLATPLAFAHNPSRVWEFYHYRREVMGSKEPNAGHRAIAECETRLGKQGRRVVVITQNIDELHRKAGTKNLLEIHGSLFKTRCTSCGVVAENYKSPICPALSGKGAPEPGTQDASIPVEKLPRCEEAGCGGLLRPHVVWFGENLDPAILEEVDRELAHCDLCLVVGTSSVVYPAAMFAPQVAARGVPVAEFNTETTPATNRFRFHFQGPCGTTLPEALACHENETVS
Chain of Albumin (P02769 whole entry): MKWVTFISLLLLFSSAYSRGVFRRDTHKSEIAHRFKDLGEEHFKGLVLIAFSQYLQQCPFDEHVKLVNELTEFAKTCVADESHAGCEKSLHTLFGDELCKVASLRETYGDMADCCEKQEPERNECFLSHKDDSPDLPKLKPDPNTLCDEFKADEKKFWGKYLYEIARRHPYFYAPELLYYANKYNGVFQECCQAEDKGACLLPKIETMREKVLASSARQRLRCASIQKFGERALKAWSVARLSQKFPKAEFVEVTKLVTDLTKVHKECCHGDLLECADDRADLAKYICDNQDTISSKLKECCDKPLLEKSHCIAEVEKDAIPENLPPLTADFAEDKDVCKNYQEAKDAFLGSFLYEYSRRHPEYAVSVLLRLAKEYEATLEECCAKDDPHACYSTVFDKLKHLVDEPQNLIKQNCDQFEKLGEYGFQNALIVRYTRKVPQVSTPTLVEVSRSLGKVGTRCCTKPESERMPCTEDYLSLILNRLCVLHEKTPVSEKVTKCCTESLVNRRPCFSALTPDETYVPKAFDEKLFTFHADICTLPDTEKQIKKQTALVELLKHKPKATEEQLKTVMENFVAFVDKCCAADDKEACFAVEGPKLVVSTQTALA
Chain of 1-phosphatidylinositol 4,5-bisphosphate phosphodiesterase beta-3 (Q01970 whole entry): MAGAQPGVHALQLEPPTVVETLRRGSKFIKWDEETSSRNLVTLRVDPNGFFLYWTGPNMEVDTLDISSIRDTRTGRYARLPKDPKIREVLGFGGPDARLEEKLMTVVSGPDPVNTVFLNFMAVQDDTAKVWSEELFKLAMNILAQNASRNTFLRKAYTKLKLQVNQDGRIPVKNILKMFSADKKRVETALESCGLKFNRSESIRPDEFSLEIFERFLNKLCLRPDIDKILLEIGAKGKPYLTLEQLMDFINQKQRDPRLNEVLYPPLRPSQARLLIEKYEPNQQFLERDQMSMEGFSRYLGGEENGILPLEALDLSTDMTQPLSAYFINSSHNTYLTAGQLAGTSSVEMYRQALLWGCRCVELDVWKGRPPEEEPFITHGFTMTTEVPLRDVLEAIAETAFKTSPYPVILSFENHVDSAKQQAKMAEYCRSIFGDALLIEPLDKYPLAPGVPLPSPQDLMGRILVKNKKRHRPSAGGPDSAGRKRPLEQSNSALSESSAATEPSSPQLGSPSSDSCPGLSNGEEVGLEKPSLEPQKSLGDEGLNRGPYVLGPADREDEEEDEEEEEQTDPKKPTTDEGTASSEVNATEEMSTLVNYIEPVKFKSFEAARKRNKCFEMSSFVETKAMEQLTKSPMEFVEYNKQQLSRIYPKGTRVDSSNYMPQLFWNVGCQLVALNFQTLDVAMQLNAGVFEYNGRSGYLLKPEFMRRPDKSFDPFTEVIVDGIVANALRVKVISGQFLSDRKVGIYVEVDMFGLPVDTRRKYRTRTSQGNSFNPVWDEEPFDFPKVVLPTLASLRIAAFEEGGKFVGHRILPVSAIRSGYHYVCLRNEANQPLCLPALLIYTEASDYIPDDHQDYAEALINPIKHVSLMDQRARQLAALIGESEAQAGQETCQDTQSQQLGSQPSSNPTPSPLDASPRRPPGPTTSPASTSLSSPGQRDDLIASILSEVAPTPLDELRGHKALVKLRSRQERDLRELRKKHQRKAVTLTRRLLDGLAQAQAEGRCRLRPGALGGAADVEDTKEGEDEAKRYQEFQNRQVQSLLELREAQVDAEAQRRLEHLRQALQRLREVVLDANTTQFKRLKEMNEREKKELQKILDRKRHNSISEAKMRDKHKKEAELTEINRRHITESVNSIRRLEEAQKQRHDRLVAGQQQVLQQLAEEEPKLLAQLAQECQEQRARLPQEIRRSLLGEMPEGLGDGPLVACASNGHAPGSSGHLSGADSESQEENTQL
Chain of Galanin receptor type 3 (O60755 whole entry): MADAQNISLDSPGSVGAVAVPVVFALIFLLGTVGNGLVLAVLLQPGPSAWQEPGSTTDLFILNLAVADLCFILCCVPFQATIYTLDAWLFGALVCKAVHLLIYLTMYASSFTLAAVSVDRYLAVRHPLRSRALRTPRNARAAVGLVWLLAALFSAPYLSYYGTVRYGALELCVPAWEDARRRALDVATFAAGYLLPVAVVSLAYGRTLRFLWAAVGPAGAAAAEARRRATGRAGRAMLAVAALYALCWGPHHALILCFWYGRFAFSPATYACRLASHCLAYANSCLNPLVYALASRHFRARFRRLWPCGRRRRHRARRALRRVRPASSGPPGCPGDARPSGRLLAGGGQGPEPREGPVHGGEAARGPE
Chain of COUP transcription factor 2 (P24468 whole entry): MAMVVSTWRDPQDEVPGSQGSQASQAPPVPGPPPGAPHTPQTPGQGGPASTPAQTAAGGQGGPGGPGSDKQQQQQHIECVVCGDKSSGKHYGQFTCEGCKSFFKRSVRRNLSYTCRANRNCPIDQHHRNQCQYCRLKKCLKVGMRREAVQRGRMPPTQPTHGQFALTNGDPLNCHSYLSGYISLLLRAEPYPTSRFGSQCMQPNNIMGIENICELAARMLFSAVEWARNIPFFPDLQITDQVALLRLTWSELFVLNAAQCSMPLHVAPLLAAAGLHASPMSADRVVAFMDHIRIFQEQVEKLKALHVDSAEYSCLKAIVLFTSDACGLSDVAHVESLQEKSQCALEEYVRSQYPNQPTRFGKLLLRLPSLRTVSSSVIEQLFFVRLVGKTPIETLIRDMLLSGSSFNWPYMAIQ
Chain of Kallikrein-7 (P49862 whole entry): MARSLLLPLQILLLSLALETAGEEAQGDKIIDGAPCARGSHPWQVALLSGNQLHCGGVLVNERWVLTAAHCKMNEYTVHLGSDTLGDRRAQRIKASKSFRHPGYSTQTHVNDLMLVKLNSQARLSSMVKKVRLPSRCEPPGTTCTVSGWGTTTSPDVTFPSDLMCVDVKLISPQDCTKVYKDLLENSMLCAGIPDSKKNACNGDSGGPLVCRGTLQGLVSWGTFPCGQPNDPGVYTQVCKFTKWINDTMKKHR

O=C(NNC(=O)c1cc2ccccc2cc1O)Nc1ccc(F)cc1F
IC50 (Albumin): > 94.1 µM (inactive)

O=C(CCNC(=O)c1ccc(F)cc1)N[C@@H]1CCCc2ccccc21
AC50 [1]: 16.5 µM (active)

CC(C)(C)[S@@+]([O-])N1Cc2cc(C(=O)NCc3ccccc3F)nc(-c3cccc(-c4ccncc4)c3)c2[C@H]1CCO
AC50 [2]: > 52 µM (inactive) | AC50 [3]: 32.2 µM (active) | AbsAC35 [4]: 50.48 µM

CC1(C)CC(=O)c2sc(NC(=O)CCS(=O)(=O)c3ccccc3)nc2C1
AC50 [5]: 69.9 µM (active) | AC50 [6]: 11.9 µM (active) | AC50 [7]: 86.7 µM (active) | AC50 (Paired box protein Pax-8): 3.16 µM (active) | AC50 [8]: 22.9 µM (active)

C[C@@H]1CN([C@@H](C)CO)C(=O)c2cc(Br)cnc2O[C@H]1CN(C)Cc1cccnc1
AC50 [9]: > 30 µM (inactive)

O=C1CN(S(=O)(=O)Cc2ccccc2)C[C@@H]2[C@@H](c3ccc(C#Cc4cccc(F)c4)cc3)[C@@H](CO)N12
AC50 [10]: 21.6 µM (active)

O=C(C[C@@H]1CC[C@@H]2[C@H](COC[C@@H](O)CN2C(=O)Nc2ccc(C(F)(F)F)cc2)O1)NC1Cc2ccccc2C1
AC50 [11]: 56.8 µM (active) | AC50 (Paired box protein Pax-8): 5.62 µM (active)

O=S(=O)(c1ccccc1)c1cnn(-c2ccccc2)c1-c1ccc(Cl)cc1
IC50 [12]: > 122 µM (inactive) | IC50 [13]: > 122 µM (inactive)

Cc1cc(NC(=O)c2coc(=O)c(Br)c2)ccc1C(C)C
CC50 (Vero): > 25 µM (active) | IC50 [14]: 0.685 µM (active) | IC50 [15]: 8.9 µM (active) | IC50 [16]: 18.8 µM (inactive)

Cc1ccc(C(=O)Nc2ccc(NC(=O)c3ccc(C)o3)cc2)o1
EC50 [17]: > 7.72 µM (active) | EC50 (Kallikrein-7): 12.7 µM (inactive)

C[C@@H]1CN([C@H](C)CO)C(=O)c2cc(NC(=O)Nc3ccc(F)cc3)ccc2O[C@@H](C)CCCCO[C@@H]1CN(C)Cc1ccc(C(F)(F)F)cc1
AC50 [18]: 12.4 µM (active) | AC50 [19]: 39.5 µM (active) | AC50 (Paired box protein Pax-8): 5.91 µM (active) | AC50 [20]: 40.6 µM (active)

Cc1cc(C)c(O)c(C(=O)CC2CC(=O)NC(=O)C2)c1
IC50 [21]: 9.88 µM (active)

CC(C)N1C[C@@H](C)[C@H](CN(C)Cc2ccc(Oc3ccccc3)cc2)Oc2c(C(=O)Nc3ccncc3)cccc2C1=O
AC50 [22]: 40.5 nM (active) and 71.6 nM (active) | AC50 [23]: 6.05 µM (active)

O=c1c2cc(N3CCOCC3)ccc2[nH]c(=S)n1Cc1ccc(Cl)cc1
EC50 (H4): 5.33 µM (active) | EC50 [24]: 66.7 µM (active) | EC50 [25]: 0.719 µM (active) | EC50 [26]: 2.96 µM (active) | AC50 [27]: > 52 µM (inactive) | EC50 [28]: 4.66 µM (active) | EC50 [29]: 5.35 µM (active)

CCc1nc2sc(C#N)c(N)c2c2c1CCCC2
EC50 (cells [30]): > 29.9 µM (inactive) | EC50 (HEK293 [31]): > 59.6 µM (inactive) | EC50 (HEK293 [32]): > 59.6 µM (inactive) | IC50 (Galanin receptor type 3): > 3.32 µM (active)

CC(C)NC(=O)Nc1ccc2c(c1)C(=O)N([C@H](C)CO)C[C@@H](C)[C@@H](CN(C)S(=O)(=O)c1ccc(Cl)cc1)O2
AC50 [33]: 39.9 µM (active)

C[C@@H]1CN([C@@H](C)CO)C(=O)Cc2cc(NC(=O)Nc3cccc4ccccc34)ccc2O[C@@H]1CN(C)S(=O)(=O)c1cccs1
AC50 (HeLa): 32.3 µM (active)

N#C[C@@H]1[C@@H](c2ccc(-c3cccc(F)c3)cc2)[C@H](CO)N1C(=O)NC1CCCC1
AC50 [6]: 39.6 µM (active) | AC50 [7]: > 70 µM (inactive) | AC50 (Paired box protein Pax-8): 22.2 µM (active) | AC50 [8]: 65.3 µM (active) | AC50 [34]: 55.5 µM (active)

CC(C)CCN(CCC(C)C)CC(O)Cn1c2ccccc2c(=O)c2ccccc21 (configuration not stated)
AC50 (cells [35]): > 52 µM (inactive)

O=C(O)C1CCCCC1C(=O)Nc1ccccc1CN1C(=O)c2ccccc2C1=O (configuration not stated)
AC50 [36]: > 52 µM (inactive)

CC(C)N1C(=O)C2(OCCCO2)c2cc(Br)ccc21
AC50 [37]: 13 µM (active) | AC50 (HEK293 [38]): 13 µM (active)

O=C(Cc1ccncc1)N1CCCCN2[C@H](CO)[C@@H](c3ccc(C#Cc4ccccc4F)cc3)[C@@H]2C1
AC50 [39]: 24.8 µM (active)

Reference: ChEMBL document CHEMBL1201862, “PubChem BioAssay data set” (2004)
